In US20040146519A1, “Inducing cellular immune responses to carcinoembryonic antigen using peptide and nucleic acid compositions” (priority 2002, published 2004):
Where two headings read alike, the source gives them in different places. Blank lines part the entries; values can stand above or below the compound they belong to.

How the values were obtained:
HLA-DRB1*0401 = HLA-DRB1*0401 (Homo sapiens, UniProt P01903+P01911, A100K/A169T/F76Y/I96L/K127E/L162R/M171V/N62H/P40V/Q125Y/R42H/S133A/S149N/S66Y/V115G/V209L/W38E); experiment: HLA class II binding assay, DRB1*0401 (DR4w4)
HLA-DRB1*0301 (DR3) = HLA-DRB1*0301 (DR3) (Homo sapiens, UniProt P01903+P01911, A100K/A102G/A103R/A169T/F55Y/I96L/K41T/L162R/M171V/P40S/Q125H/Q178H/Q39Y/R42S/S66N/T106N/T262R/W38E/Y61H); experiment: HLA class II binding assay, DRB1*0301 (DR3); settings: read-out: DR3 binding affinity
Sequence of HLA-DRB1*0301 (DR3) (P01903 26-254 limits assumed, other chains not shown): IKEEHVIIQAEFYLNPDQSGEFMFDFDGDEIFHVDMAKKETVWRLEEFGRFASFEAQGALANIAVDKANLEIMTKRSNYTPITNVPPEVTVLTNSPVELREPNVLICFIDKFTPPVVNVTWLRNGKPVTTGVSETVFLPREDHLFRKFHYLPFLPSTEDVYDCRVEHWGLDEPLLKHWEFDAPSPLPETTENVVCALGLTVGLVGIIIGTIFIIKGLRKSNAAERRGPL

HLA-A*1101 = HLA-A*1101 (Homo sapiens, UniProt P04439, A114D/D185E/E176A/F33Y/L180Q/S129P/T187R); experiment: HLA class I binding assay, purified HLA-A*1101; settings: Table XXIII, binding affinity
Sequence of HLA-A*1101 (P04439 25-365 limits assumed, stated change not applied): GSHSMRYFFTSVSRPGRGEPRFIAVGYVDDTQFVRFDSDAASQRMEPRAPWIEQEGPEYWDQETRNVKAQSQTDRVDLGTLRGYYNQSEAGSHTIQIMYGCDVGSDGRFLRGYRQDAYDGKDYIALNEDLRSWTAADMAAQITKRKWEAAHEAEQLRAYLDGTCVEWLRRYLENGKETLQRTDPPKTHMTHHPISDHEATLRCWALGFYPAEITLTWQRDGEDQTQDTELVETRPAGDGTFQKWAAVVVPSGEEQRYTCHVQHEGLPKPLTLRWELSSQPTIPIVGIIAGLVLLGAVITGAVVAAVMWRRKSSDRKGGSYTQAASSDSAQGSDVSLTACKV

HLA-A*0301 = HLA-A*0301 (Homo sapiens, UniProt P04439); experiment: HLA class I binding assay, purified HLA-A*0301; settings: Table XXIII, binding affinity
HLA-A*6801 = HLA-A*6801 (Homo sapiens, UniProt P04439, A269V/D185E/E176V/E277Q/E87N/F33Y/G231S/I121M/I166T/I218V/L180W/L300P/L318F/N151K/P208A/P217A/Q86R/R169H/T345S); experiment: HLA class I binding assay, purified HLA-A*6801; settings: Table XXIII, binding affinity
HLA-A*3301 = HLA-A*3301 (Homo sapiens, UniProt P04439, A270S/D185E/E176V/E277Q/E87N/F33T/G231S/H175R/I121M/I218V/I322F/K168Q/K210R/L300P/L318F/M331R/P217A/Q86R/Q94H/R138Q/T323A/T345S/T97I/V358M/Y195H); experiment: HLA class I binding assay, purified HLA-A*3301; settings: Table XXIII, binding affinity
[1] = system: .221A2.1 cells pulsed with peptide; experiment: Primary in vitro CTL induction, 51Cr release against peptide-pulsed targets; format: cell-based, human; settings: number of donors yielding a positive response/total tested
Method: (§1) The colon adenocarcinoma cell lines SW403 and […], the osteosarcoma line Saos-2 and the breast tumor line BT540 were obtained from the American Type Culture Collection (ATCC) (Rockville, Md.). The gastric cancer line, KATO III was obtained from the Japanese Cancer Research Resources Bank. […] The melanoma, colon and gastric cancer cells were treated with 100 U/ml IFN (Genzyme) for 48 hours at 37° C. before use as targets in the ^51Cr release and in situ IFN assays.
The monocytes were purified by plating 10×10^6 PBMC/well in a 6-well plate. After 2 hours at 37° C., the non-adherent cells were removed by gently shaking the plates and aspirating the supernatants. The wells were washed a total of three times with 3 ml RPMI to remove most of the non-adherent and loosely adherent cells. Three ml of complete medium containing 50 ng/ml of GM-CSF and 1,000 U/ml of IL-4 were then added to each well. […]
Induction of CTL with DC and Peptide: CD8+ T-cells were isolated by positive selection with Dynal immunomagnetic beads (Dynabeads® M-450) and the detacha-bead® reagent. […] The DC were collected and centrifuged at 1300 rpm for 5-7 minutes, washed once with PBS with 1% BSA, counted and pulsed with 40 μg/ml of peptide at a cell concentration of 1-2×10^6/ml in the presence of 3 μg/ml β2-microglobulin for 4 hours at 20° C. The DC were then irradiated (4,200 rads), washed 1 time with medium and counted again. […]

[2] = system: tumor targets that endogenously express CEA (SW403, HT-20, KATO III); experiment: 51Cr release against tumor targets (endogenous recognition); format: cell-based, human; settings: number of donors yielding a positive response/total tested
Method: as §1
Restimulation of the induction cultures with peptide-pulsed adherent cells: Seven and fourteen days after the primary induction the cells were restimulated with peptide-pulsed adherent cells. […] After expansion, activity was measured in both assays for a side by side comparison.
Seven days after the second restimulation, cytotoxicity was determined in a standard (5 hr) ^51Cr release assay by assaying individual wells at a single E:T. Peptide-pulsed targets were prepared by incubating the cells with 10 μg/ml peptide overnight at 37° C.
Adherent target cells were removed from culture flasks with trypsin-EDTA. […] At that time, 100 μl of supernatant were collected from each well and percent lysis was determined according to the formula: [(cpm of the test sample−cpm of the spontaneous ^51Cr release sample)/(cpm of the maximal ^51Cr release sample-cpm of the spontaneous ^51Cr release sample)]×100. […]

[3] = HLA Class II motif and supermotif-bearing epitopes

SMILES: CC[C@H](C)[C@H](NC(=O)[C@@H](NC(=O)[C@H](Cc1c[nH]cn1)NC(=O)[C@@H](N)CC(C)C)C(C)C)C(=O)N[C@@H](CCCCN)C(=O)N[C@@H](CO)C(=O)N[C@@H](CC(=O)O)C(=O)N[C@@H](CC(C)C)C(=O)N[C@H](C(=O)N[C@@H](CC(N)=O)C(=O)N[C@@H](CCC(=O)O)C(=O)N[C@@H](CCC(=O)O)C(=O)N[C@@H](C)C(=O)N[C@H](C(=O)NCC(=O)O)[C@@H](C)O)C(C)C [CEA.122]
- IC50 (HLA-DRB1*0301 (DR3)): 2.31 µM

SMILES: CC(C)[C@H](NC(=O)[C@@H](N)[C@@H](C)O)C(=O)N[C@@H](CO)C(=O)N1CCC[C@H]1C(=O)N[C@@H](CO)C(=O)N[C@@H](Cc1ccc(O)cc1)C(=O)N[C@H](C(=O)N[C@@H](Cc1ccc(O)cc1)C(=O)N[C@@H](Cc1ccc(O)cc1)C(=O)N[C@@H](CCCNC(=N)N)C(=O)O)[C@@H](C)O [CEA.419.V2]
- IC50 (HLA-A*1101): 3 µM
- IC50 (HLA-A*0301): 2.34 µM
- IC50 (HLA-A*6801): 0.0086 µM
- IC50 (HLA-A*3301): 0.264 µM

SMILES: CC(C)C[C@H](NC(=O)[C@H](CC(N)=O)NC(=O)[C@H](CC(C)C)NC(=O)[C@H](CC(N)=O)NC(=O)[C@H](C)NC(=O)CNC(=O)[C@H](CO)NC(=O)[C@H](CC(C)C)NC(=O)[C@@H](N)Cc1ccc(O)cc1)C(=O)O [compound 605]
- CTL Wildtype ([1]; Table XXVIIa): 2/2
- CTL Wild-type ([1]; Table XXVIIb): 2/2
- CTL Tumor ([2]; Table XXVIIa): 1/2
- CTL Tumor ([2]; Table XXVIIb): 1/2

Next, values leading:

- IC50 (HLA-DRB1*0401; DR supertype primary binding, read-out: DR4w4 binding affinity): 1.55 µM
SMILES: CC(C)C[C@H](NC(=O)[C@H](CCCNC(=N)N)NC(=O)[C@@H]1CCCN1C(=O)[C@H](CO)NC(=O)[C@@H](NC(=O)[C@@H]1CCCN1C(=O)[C@H](CC(C)C)NC(=O)[C@H](CO)NC(=O)[C@H](CCC(N)=O)NC(=O)[C@H](CC(N)=O)NC(=O)[C@H](CC(N)=O)NC(=O)[C@@H](NC(=O)[C@H](Cc1c[nH]c2ccccc12)NC(=O)[C@H](Cc1c[nH]c2ccccc12)NC(=O)[C@@H](N)CC(C)C)C(C)C)C(C)C)C(=O)O [CEA.177]

- IC50 (HLA-DRB1*0401; [3]): > 8.18 µM
SMILES: CC[C@H](C)[C@H](NC(=O)[C@H](CC(N)=O)NC(=O)[C@@H](N)CCC(N)=O)C(=O)N[C@H](C(=O)N[C@@H](CCC(N)=O)C(=O)N[C@@H](CC(N)=O)C(=O)N[C@@H](CC(=O)O)C(=O)N[C@H](C(=O)NCC(=O)N[C@@H](Cc1ccccc1)C(=O)N[C@@H](Cc1ccc(O)cc1)C(=O)N[C@H](C(=O)N[C@@H](CC(C)C)C(=O)N[C@@H](Cc1c[nH]cn1)C(=O)N[C@H](C(=O)O)C(C)C)[C@@H](C)O)[C@@H](C)O)[C@@H](C)CC [CEA.110]

- IC50 (HLA-DRB1*0401; [3]): > 8.18 µM
SMILES: CC(C)C[C@H](NC(=O)[C@H](CC(C)C)NC(=O)[C@@H](NC(=O)[C@H](CC(C)C)NC(=O)[C@@H](NC(=O)[C@H](CCCNC(=N)N)NC(=O)[C@H](CC(N)=O)NC(=O)[C@H](CC(=O)O)NC(=O)[C@H](CC(N)=O)NC(=O)[C@H](CO)NC(=O)[C@H](CC(C)C)NC(=O)[C@H](CCC(N)=O)NC(=O)[C@H](CC(C)C)NC(=O)[C@@H](N)CCCNC(=N)N)[C@@H](C)O)[C@@H](C)O)C(=O)N[C@@H](CO)C(=O)O [CEA.368]
